# Test results: US20250122174A1 (Shenzhen Yuanli Shenwan Innovative Medicine Co., Ltd., priority 2022, published 2025)
# Where a name gives a salt, the structure may show the parent alone.
# Molecular target: HPK1 (Homo sapiens (Human), UniProt Q92918)
# Assay: HPK1 Inhibition Assay (ADP-Glo kinase assay)
# Format: biochemical
# Conditions: ATP 10 μM
# Procedure: A stock solution of 10 mM test compound was prepared in DMSO. The compound was prepared by 5-fold and 10-point serial dilutions with HPK1 kinase assay buffer. The HPK1 kinase assay buffer contained 40 mM Tris, pH 7.5; 20 mM MgCl2, 0.1 mg/ml BSA, and 50 μM DTT. 7.5 ng/μl of Active HPK1 (Promega, V4098) and 0.1 μg/ml MBP substrate protein were added to the reaction system. The final concentration of ATP in the HPK1 kinase reaction system was 10 μM. Serial diluted compounds were transferred to the reaction system and incubated at room temperature for 1 hr. 5 μL of ADP-Glo™ Reagent (Promega, V9101) was added and incubated for 40 min to stop the kinase reaction and deplete the unconsumed ATP. […] The luminescence was measured with a plate-reading luminometer.
# HPK1, sequence (Q92918 1-346 limits assumed): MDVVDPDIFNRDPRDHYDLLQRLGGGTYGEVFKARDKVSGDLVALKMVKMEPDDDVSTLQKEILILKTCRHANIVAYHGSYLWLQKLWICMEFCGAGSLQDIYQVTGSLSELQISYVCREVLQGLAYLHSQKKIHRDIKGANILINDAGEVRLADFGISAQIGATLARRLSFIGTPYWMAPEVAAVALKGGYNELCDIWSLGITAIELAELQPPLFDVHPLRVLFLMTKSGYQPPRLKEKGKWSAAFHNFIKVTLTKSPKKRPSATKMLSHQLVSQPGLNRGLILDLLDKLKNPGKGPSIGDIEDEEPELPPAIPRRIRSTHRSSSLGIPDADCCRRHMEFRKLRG
row,IC50 [nM],SMILES
1,< 100,"C[C@@H]1CN(c2c(NC(=O)c3ccc(=O)n(-c4c(F)cccc4F)n3)ccc3nn(C45CC(C(F)(F)F)(C4)C5)cc23)C[C@@H]1N [Example 319, N-(4-((3R,4R)-3-amino-4-methylpyrrolidin-1-yl)-2-(3-(trifluoromethyl)bicyclo[1.1.1]pentan-1-yl)-2H-indazol-5-yl)-1-(2,6-difluorophenyl)-6-oxo-1,6-dihydropyridazine-3-carboxamide]"
2,< 100,"Cc1nc2c(N3CC[C@](C)(N)C3)c(NC(=O)c3ccc(=O)n(-c4c(F)cccc4F)n3)ccc2n1C [Example 77, (S)-N-(4-(3-amino-3-methylpyrrolidin-1-yl)-1,2-dimethyl-1H-benzo[d]imidazol-5-yl)-1-(2,6-difluorophenyl)-6-oxo-1,6-dihydropyridazine-3-carboxamide]"
3,< 100,"CC(C)n1cc2c(N3C[C@@H](C)[C@@H](N)C3)c(NC(=O)c3ccc(=O)n(-c4c(F)cccc4F)n3)ccc2n1 [Example 224, N-(4-((3R,4R)-3-amino-4-methylpyrrolidin-1-yl)-2-isopropyl-2H-indazol-5-yl)-1-(2,6-difluorophenyl)-6-oxo-1,6-dihydropyridazine-3-carboxamide]"
4,< 100,"COCCn1ncc2c(N3CC[C@@H](N)C3)c(NC(=O)c3ccc(=O)n(-c4c(F)cccc4F)n3)cc(F)c21 [Example 293, (R)-N-(4-(3-aminopyrrolidin-1-yl)-7-fluoro-1-(2-methoxyethyl)-1H-indazol-5-yl)-1-(2,6-difluorophenyl)-6-oxo-1,6-dihydropyridazine-3-carboxamide]"
5,< 100,"CC(C)n1ncc2c(N3C[C@@H](C)[C@@H](N)C3)c(NC(=O)c3ccc(=O)n(-c4ccccc4F)n3)ccc21 [Example 215, N-(4-((3R,4R)-3-amino-4-methylpyrrolidin-1-yl)-1-isopropyl-1H-indazol-5-yl)-1-(2-fluorophenyl)-6-oxo-1,6-dihydropyridazine-3-carboxamide]"
6,< 100,"Cc1nc2c(N3CC(N)CC(F)(F)C3)c(NC(=O)c3ccc(=O)n(-c4c(F)cccc4F)n3)ccc2n1C (centres unmarked) [Example 96, N-(4-(5-amino-3,3-difluoropiperidin-1-yl)-1,2-dimethyl-1H-benzo[d]imidazol-5-yl)-1-(2,6-difluorophenyl)-6-oxo-1,6-dihydropyridazine-3-carboxamide]"
7,< 100,"Cn1c(C(C)(C)F)nc2c(N3CC[C@@H](N)C3)c(NC(=O)c3ccc(=O)n(-c4c(F)cccc4F)n3)cc(F)c21 [Example 157, (R)-N-(4-(3-aminopyrrolidin-1-yl)-7-fluoro-2-(2-fluoropropan-2-yl)-1-methyl-1H-benzo[d]imidazol-5-yl)-1-(2,6-difluorophenyl)-6-oxo-1,6-dihydropyridazine-3-carboxamide]"
8,< 100,"CC(C)c1nc2c(N3CC[C@](N)(C(F)(F)F)C3)c(NC(=O)c3ccc(=O)n(-c4c(F)cccc4F)n3)ccc2n1C (single isomer, unassigned) [Example 139]"
9,< 100,"Cc1nc2c(N3CCNCC3)c(NC(=O)c3ccc(=O)n(-c4c(F)cccc4F)n3)ccc2n1C [Example 71, 1-(2,6-difluorophenyl)-N-(1,2-dimethyl-4-(piperazin-1-yl)-1H-benzo[d]imidazol-5-yl)-6-oxo-1,6-dihydropyridazine-3-carboxamide]"
10,< 100,"CC(C)n1cc2c(N3CC[C@@H](N)C3)c(NC(=O)c3ccc(=O)n(-c4c(F)cccc4F)n3)cc(F)c2n1 [Example 222, (R)-N-(4-(3-aminopyrrolidin-1-yl)-7-fluoro-2-isopropyl-2H-indazol-5-yl)-1-(2,6-difluorophenyl)-6-oxo-1,6-dihydropyridazine-3-carboxamide]"
11,< 100,"CC(C)n1ncc2c(N3C[C@@H]4NCCO[C@H]4C3)c(NC(=O)c3ccc(=O)n(-c4c(F)cccc4F)n3)ccc21 [Example 194, 1-(2,6-difluorophenyl)-N-(4-((4aS,7aS)-hexahydropyrrolo[3,4-b][1,4]oxazin-6(2H)-yl)-1-isopropyl-1H-indazol-5-yl)-6-oxo-1,6-dihydropyridazine-3-carboxamide]"
12,< 100,"N[C@@H]1CCCN(c2c(NC(=O)c3ccc(=O)n(-c4c(F)cccc4F)n3)ccc3c2cnn3[C@@H]2CCOC2)C1 [Example 264, N-(4-((R)-3-aminopiperidin-1-yl)-1-((R)-tetrahydrofuran-3-yl)-1H-indazol-5-yl)-1-(2,6-difluorophenyl)-6-oxo-1,6-dihydropyridazine-3-carboxamide]"
13,< 100,CC(C)n1cc2c(N3C[C@H](N)C4(CC4)C3)c(NC(=O)c3ccc(=O)n(-c4c(F)cccc4F)n3)ccc2n1 [Example 229]
14,< 100,"C[C@@H]1CN(c2c(NC(=O)c3ccc(=O)n(-c4c(F)cccc4F)n3)ccc3c2cnn3C)C[C@@H]1N [Example 166, N-[4-[(3R,4R)-3-amino-4-methyl-pyrrolidin-1-yl]-1-methyl-indazol-5-yl]-1-(2,6-difluorophenyl)-6-oxo-pyridazine-3-carboxamide]"
15,< 100,"CC(C)n1ncc2c(N3CC[C@@](C)(N)C3)c(NC(=O)c3ccc(=O)n(-c4c(F)cccc4F)n3)ccc21 [Example 208, (R)-N-(4-(3-amino-3-methylpyrrolidin-1-yl)-1-isopropyl-1H-indazol-5-yl)-1-(2,6-difluorophenyl)-6-oxo-1,6-dihydropyridazine-3-carboxamide]"
16,< 100,"C[C@H]1CN(c2c(NC(=O)c3ccc(=O)n(-c4c(F)cccc4F)n3)ccc3c2cnn3C2CCOCC2)C[C@@H]1N [Example 273, N-(4-((3R,4S)-3-amino-4-methylpyrrolidin-1-yl)-1-(tetrahydro-2H-pyran-4-yl)-1H-indazol-5-yl)-1-(2,6-difluorophenyl)-6-oxo-1,6-dihydropyridazine-3-carboxamide]"
17,< 100,"N#Cc1ccncc1-c1ccc(NC(=O)c2ccc(=O)n(-c3c(F)cccc3F)n2)c(N2CCNCC2)c1 [Example 342, N-(4-(4-cyanopyridin-3-yl)-2-(piperazin-1-yl)phenyl)-1-(2,6-difluorophenyl)-6-oxo-1,6-dihydropyridazine-3-carboxamide]"
18,< 100,"C[C@@H]1CN(c2c(NC(=O)c3ccc(=O)n(-c4c(F)cccc4F)n3)ccc3c2ncn3C2CCOCC2)C[C@@H]1N [Example 153, N-(4-((3R,4R)-3-amino-4-methylpyrrolidin-1-yl)-1-(tetrahydro-2H-pyran-4-yl)-1H-benzo[d]imidazol-5-yl)-1-(2,6-difluorophenyl)-6-oxo-1,6-dihydropyridazine-3-carboxamide]"
19,100 to 1000,"Cn1c(C(F)(F)F)nc2c(N3CC[C@H](N)C3)c(NC(=O)c3ccnn(-c4c(F)cccc4F)c3=O)ccc21 [Example 39, (S)—N-(4-(3-aminopyrrolidin-1-yl)-1-methyl-2-(trifluoromethyl)-1H-benzo[d]imidazol-5-yl)-2-(2,6-difluorophenyl)-3-oxo-2,3-dihydropyridazine-4-carboxamide]"
20,< 100,"CO[C@@H]1CN(c2c(NC(=O)c3ccc(=O)n(-c4c(F)cccc4F)n3)ccc3c2cnn3C(C)C)C[C@H]1N [Example 201, N-(4-((35,4S)-3-amino-4-methoxypyrrolidin-1-yl)-1-isopropyl-1H-indazol-5-yl)-1-(2,6-difluorophenyl)-6-oxo-1,6-dihydropyridazine-3-carboxamide]"
21,< 100,"C[C@@H]1CN(c2c(NC(=O)c3ccc(=O)n(-c4c(F)cccc4F)n3)ccc3c2cnn3C2CCOCC2)C[C@@H]1N [Example 261, N-(4-((3R,4R)-3-amino-4-methylpyrrolidin-1-yl)-1-(tetrahydro-2H-pyran-4-yl)-1H-indazol-5-yl)-1-(2,6-difluorophenyl)-6-oxo-1,6-dihydropyridazine-3-carboxamide]"
22,< 100,"Cn1c(C(C)(C)C)nc2c(N3CCC(N)(CO)C3)c(NC(=O)c3ccc(=O)n(-c4c(F)cccc4F)n3)ccc21 (centres unmarked) [Example 105, N-(4-(3-amino-3-(hydroxymethyl)pyrrolidin-1-yl)-2-(tert-butyl)-1-methyl-1H-benzo[d]imidazol-5-yl)-1-(2,6-difluorophenyl)-6-oxo-1,6-dihydropyridazine-3-carboxamide]"
23,< 100,"[2H]C([2H])([2H])n1ncc2c(N3C[C@@H](C)[C@@H](N)C3)c(NC(=O)c3ccc(=O)n(-c4c(F)cccc4F)n3)ccc21 [Example 171, N-(4-((3R,4R)-3-amino-4-methylpyrrolidin-1-yl)-1-(methyl-d3)-1H-indazol-5-yl)-1-(2,6-difluorophenyl)-6-oxo-1,6-dihydropyridazine-3-carboxamide]"
24,< 100,"CC(C)c1nc2c(N3CC(F)(F)C[C@H]3CN)c(NC(=O)c3ccc(=O)n(-c4c(F)cccc4F)n3)cc(F)c2n1C [Example 144, (S)-N-(4-(2-(aminomethyl)-4,4-difluoropyrrolidin-1-yl)-7-fluoro-2-isopropyl-1-methyl-1H-benzo[d]imidazol-5-yl)-1-(2,6-difluorophenyl)-6-oxo-1,6-dihydropyridazine-3-carboxamide]"
25,< 100,"Cc1nc2c(N(C)[C@@H]3CCCNC3)c(NC(=O)c3ccc(=O)n(-c4c(F)cccc4F)n3)ccc2n1C [Example 70, (R)-1-(2,6-difluorophenyl)-N-(1,2-dimethyl-4-(methyl(piperidin-3-yl)amino)-1H-benzo[d]imidazol-5-yl)-6-oxo-1,6-dihydropyridazine-3-carboxamide]"
26,100 to 1000,"Cc1nc2c(N3CC[C@H](N)C3)c(NC(=O)c3ccnn(-c4c(F)cccc4F)c3=O)ccc2n1C1CCOCC1 [Example 47, (S)—N-(4-(3-aminopyrrolidin-1-yl)-2-methyl-1-(tetrahydro-2H-pyran-4-yl)-1H-benzo[d]imidazol-5-yl)-2-(2,6-difluorophenyl)-3-oxo-2,3-dihydropyridazine-4-carboxamide trifluoroacetate]"
